Target: T1, adenosine A2A receptor (A2AR-YFP) (Homo sapiens, UniProt P29274)
T1 construct: gene ADORA2A; Human adenosine 2A receptor fused C-terminally to EYFP
Test: fluorescence correlation spectroscopy titration on single native vesicles from HEK293T cells (KD =[…] on cells)
Format: binding

T1 sequence (P29274 whole entry, the tested form may be a part): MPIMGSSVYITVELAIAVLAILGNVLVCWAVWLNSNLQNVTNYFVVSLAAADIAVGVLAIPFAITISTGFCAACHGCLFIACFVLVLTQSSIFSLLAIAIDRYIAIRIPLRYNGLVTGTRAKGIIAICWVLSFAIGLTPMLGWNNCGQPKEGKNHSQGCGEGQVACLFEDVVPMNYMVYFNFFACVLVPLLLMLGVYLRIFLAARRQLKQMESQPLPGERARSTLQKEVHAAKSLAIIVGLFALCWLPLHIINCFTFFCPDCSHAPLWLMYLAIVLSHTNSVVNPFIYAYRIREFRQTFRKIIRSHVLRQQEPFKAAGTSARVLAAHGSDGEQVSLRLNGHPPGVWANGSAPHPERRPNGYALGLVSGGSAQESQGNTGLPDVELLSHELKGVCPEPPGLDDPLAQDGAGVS

Substance XAC-Atto655 has a Kd of 67 ± 11 nM.
